Data reported in the supplement of paper PMC11061612.

How the values were obtained:
Experiment in all cases: combination Emax (second highest fraction inhibited in the dose matrix, 72 h); higher = more inhibition; extreme values may be limits of the assay
[1] = test system: CAL-62 (Thyroid Gland Carcinoma)
Method in brief: (§1)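 After 24 hours at 37°C and 5% CO2 in 1536-well plates, cells in DMEM/F12 or RPMI plus 10% FBS received two-drug dose matrices for 72 hours. Viability came from CellTiter-Glo 2.0 luminescence and was scaled as inhibition, anchored at 0 by vehicle wells and at 1 by blank wells. Combination Emax is taken as the second-highest inhibition in the matrix, and Bliss excess as the observed combination effect less EA + EB − EA·EB, with EA and EB the single-agent effects.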

GB-1 (Glioblastoma) = test system: GB-1 (Glioblastoma)
Method in brief: as §1

[2] = test system: GP5d (Colorectal Carcinoma)
Method in brief: as §1

[3] = test system: HEC-1 (Endometrial Carcinoma)
Method in brief: as §1

IST-MES1 (Mesothelioma) = test system: IST-MES1 (Mesothelioma)
Method in brief: as §1

[4] = test system: KE-37 (T-Lymphoblastic Leukemia)
Method in brief: as §1

[5] = test system: L-1236 (Hodgkin's Lymphoma)
Method in brief: as §1

[6] = test system: LK-2 (Squamous Cell Lung Carcinoma)
Method in brief: as §1

LN-229 (Glioblastoma) = test system: LN-229 (Glioblastoma)
Method in brief: as §1

[7] = test system: LXF-289 (Lung Adenocarcinoma)
Method in brief: as §1

[8] = test system: MFE-280 (Endometrial Carcinoma)
Method in brief: as §1

[9] = test system: NCI-H446 (Small Cell Lung Carcinoma)
Method in brief: as §1

[10] = test system: OPM-2 (Plasma Cell Myeloma)
Method in brief: as §1

[11] = test system: OVMIU (Ovarian Carcinoma)
Method in brief: as §1

[12] = test system: PANC-03-27 (Pancreatic Carcinoma)
Method in brief: as §1

SF268 (Low Grade Glioma) = test system: SF268 (Low Grade Glioma)
Method in brief: as §1

SF539 (Glioblastoma) = test system: SF539 (Glioblastoma)
Method in brief: as §1

[13] = test system: SK-PN-DW (Other Solid Carcinomas)
Method in brief: as §1

[14] = test system: TE-8 (Esophageal Squamous Cell Carcinoma)
Method in brief: as §1

[15] = test system: VAL (B-Cell Non-Hodgkin's Lymphoma)
Method in brief: as §1

Structure (SMILES)	combination Emax [1]	combination Emax (GB-1 (Glioblastoma))	combination Emax [2]	combination Emax [3]	combination Emax (IST-MES1 (Mesothelioma))	combination Emax [4]	combination Emax [5]	combination Emax [6]	combination Emax (LN-229 (Glioblastoma))	combination Emax [7]	combination Emax [8]	combination Emax [9]	combination Emax [10]	combination Emax [11]	combination Emax [12]	combination Emax (SF268 (Low Grade Glioma))	combination Emax (SF539 (Glioblastoma))	combination Emax [13]	combination Emax [14]	combination Emax [15]
Cc1c2c(nn1C)CSCc1cc(n(C)n1)CSc1cc(c3ccccc3c1)OCCCc1c(C(=O)O)n(C)c3c-2c(Cl)ccc13 [AZD5991] + CCN(CCO)CCCOc1ccc2c(Nc3cc(CC(=O)Nc4cccc(F)c4)[nH]n3)ncnc2c1 [AZD2811] (first compound max 1 µM, 7x7, partner max 1 µM)	0.237	0.264	0.956	0.217	0.266	1	0.491	0.962	0.522	0.864	0.482	0.926	1	0.283	0.517	0.472	0.553	0.985	0.529	0.909
Cc1c2c(nn1C)CSCc1cc(n(C)n1)CSc1cc(c3ccccc3c1)OCCCc1c(C(=O)O)n(C)c3c-2c(Cl)ccc13 [AZD5991] + CN(C)CCCOc1ccc(-c2ccc3ncc4c(c3c2)n(C2CCOCC2)c(=O)n4C)cn1 [AZD0156] (first compound max 1 µM, 7x7, partner max 1 µM)	0.218	0.186	0.817	0.195	0.191	0.939	0.331	0.183	0.483	0.427	0.38	0.67	1	0.359	0.254	0.3	0.302	0.835	0.379	0.657
Cc1c2c(nn1C)CSCc1cc(n(C)n1)CSc1cc(c3ccccc3c1)OCCCc1c(C(=O)O)n(C)c3c-2c(Cl)ccc13 [AZD5991] + C[C@@H]1COCCN1C2=NC(=NC(=C2)C3(CC3)[S@](=N)(=O)C)C4=C5C=CNC5=NC=C4 [AZD6738] (first compound max 1 µM, 7x7, partner max 10 µM)	0.806	0.489	0.984	0.404	0.285	1	0.74	0.357	0.777	0.776	0.384	0.948	1	0.483	0.819	0.692	0.919	0.947	0.751	0.933
Cc1c2c(nn1C)CSCc1cc(n(C)n1)CSc1cc(c3ccccc3c1)OCCCc1c(C(=O)O)n(C)c3c-2c(Cl)ccc13 [AZD5991] + C[C@@H](Nc1cc(F)cc(F)c1)c1cc(C(=O)N(C)C)cc2c(=O)cc(N3CCOCC3)oc12 [AZD8186] (first compound max 1 µM, 7x7, partner max 3 µM)	0.206	0.219	0.817	0.14	0.241	0.919	0.291	0.196	0.546	0.47	0.465	0.882	1	0.447	0.354	0.3	0.438	0.911	0.373	0.744
Cc1c2c(nn1C)CSCc1cc(n(C)n1)CSc1cc(c3ccccc3c1)OCCCc1c(C(=O)O)n(C)c3c-2c(Cl)ccc13 [AZD5991] + Cc1cc2ncnn2cc1Nc1ncc2c(n1)n(C1CCOCC1)c(=O)n2C [AZD7648] (first compound max 1 µM, 7x7, partner max 10 µM)	0.439	0.264	0.824	0.18	0.249	0.975	0.426	0.198	0.389	0.369	0.437	0.648	1	0.547	0.261	0.243	0.41	0.881	0.427	0.744
Cc1c2c(nn1C)CSCc1cc(n(C)n1)CSc1cc(c3ccccc3c1)OCCCc1c(C(=O)O)n(C)c3c-2c(Cl)ccc13 [AZD5991] + Cn1cnc2c(F)c(Nc3ccc(Br)cc3Cl)c(C(=O)NOCCO)cc21 [Selumetinib] (first compound max 1 µM, 7x7, partner max 3 µM)	0.354	0.174	1	0.143	0.257	0.947	0.297	0.203	0.428	0.398	0.278	0.563	1	0.383	0.597	0.269	0.427	0.887	0.415	0.724
C[C@@H]1COCCN1c1cc(C2([S@](C)(=N)=O)CC2)nc(-c2ccnc3[nH]ccc23)n1 [AZD6738] + O=C(c1cc(Cc2n[nH]c(=O)c3ccccc23)ccc1F)N1CCN(C(=O)C2CC2)CC1 [Olaparib] (first compound max 10 µM, 7x7, partner max 10 µM)	0.899	0.478	0.823	0.143	0.353	1	0.583	0.485	0.539	0.516	0.403	0.811	0.75	0.429	0.829	0.407	0.935	0.947	0.757	0.909
Cc1cc2ncnn2cc1Nc1ncc2c(n1)n(C1CCOCC1)c(=O)n2C [AZD7648] + C=CCn1c(=O)c2cnc(Nc3ccc(N4CCN(C)CC4)cc3)nc2n1-c1cccc(C(C)(C)O)n1 [AZD1775] (first compound max 10 µM, partner max 1 µM)	0.69	0.439	0.704	0.137	0.402	1	0.767	0.894	0.35	0.476	0.355	0.839	0.864	0.635	0.878	0.344	0.998	0.875	0.814	0.864
Cc1cc2ncnn2cc1Nc1ncc2c(n1)n(C1CCOCC1)c(=O)n2C [AZD7648] + CCN(CCO)CCCOc1ccc2c(Nc3cc(CC(=O)Nc4cccc(F)c4)[nH]n3)ncnc2c1 [AZD2811] (first compound max 10 µM, 7x7, partner max 1 µM)	0.368	0.166	0.478	0	0.31	1	0.384	0.742	0.199	0.395	0.377	0.834	0.605	0.444	0.334	0.19	0.462	0.696	0.354	0.798
Cc1cc2ncnn2cc1Nc1ncc2c(n1)n(C1CCOCC1)c(=O)n2C [AZD7648] + CN(C)CCCOc1ccc(-c2ccc3ncc4c(c3c2)n(C2CCOCC2)c(=O)n4C)cn1 [AZD0156] (first compound max 10 µM, 7x7, partner max 1 µM)	0.321	0.19	0.293	0.002	0.239	0.659	0.306	0.269	0.146	0.201	0.359	0.309	0.556	0.474	0.318	0.187	0.352	0.303	0.325	0.53
Cc1cc2ncnn2cc1Nc1ncc2c(n1)n(C1CCOCC1)c(=O)n2C [AZD7648] + C[C@@H]1COCCN1C2=NC(=NC(=C2)C3(CC3)[S@](=N)(=O)C)C4=C5C=CNC5=NC=C4 [AZD6738] (first compound max 10 µM, 7x7, partner max 10 µM)	0.724	0.544	0.822	0.423	0.313	1	0.689	0.39	0.525	0.369	0.337	0.786	0.822	0.528	0.824	0.303	0.85	0.943	0.75	0.918
Cc1cc2ncnn2cc1Nc1ncc2c(n1)n(C1CCOCC1)c(=O)n2C [AZD7648] + O=C(c1cc(Cc2n[nH]c(=O)c3ccccc23)ccc1F)N1CCN(C(=O)C2CC2)CC1 [Olaparib] (first compound max 10 µM, 7x7, partner max 10 µM)	0.377	0.23	0.28	0.114	0.234	0.585	0.238	0.335	0.0989	0.177	0.434	0.273	0.294	0.306	0.185	0.117	0.406	0.395	0.184	0.601
NC1(C(=O)N[C@@H](CCO)c2ccc(Cl)cc2)CCN(c2ncnc3[nH]ccc23)CC1 [Capivasertib] + CC(=O)c1c(C)c2cnc(Nc3ccc(N4CCNCC4)cn3)nc2n(C2CCCC2)c1=O [Palbociclib] (first compound max 10 µM, 7x7, partner max 10 µM)	0.422	0.476	0.648	0.33	0.303	0.76	0.861	0.205	0.376	0.691	0.555	0.719	0.987	0.383	0.283	0.452	0.578	0.615	0.48	0.626
